# Test results published in PubChem BioAssay (NCI).
# “And” between values parts separate entries of the source, which are not always exact repeats. Equal entries are not always repeated.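 Tested at 5 concentrations; 48 h exposure; 96-well plates; endpoints linearly interpolated, else capped at highest concentration. Abbreviation: GI50, concentration required for 50% inhibition of growth. TGI denotes the concentration required for complete inhibition of growth.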
# Legend:
# Test in all cases: NCI tumour cell line growth inhibition, 48 h
# [1] = tested on: BT-549 breast
# [2] = tested on: T-47D breast
# [3] = tested on: PC-3 prostate
# [4] = tested on: MDA-MB-435
# [5] = tested on: MDA-N
# [6] = tested on: SNB-78 CNS
# [7] = tested on: DMS 114 small cell lung
# [8] = tested on: DMS 273 small cell lung
Structure (SMILES),GI50 [1] [µM],TGI [1],GI50 [2] [µM],GI50 [3] [µM],TGI [3],GI50 [4] [µM],TGI [4],TGI [2],TGI [5],TGI [6] [µM],TGI [7] [µM],GI50 [5] [µM],GI50 [7] [µM],GI50 [8] [µM],TGI [8] [µM]
Fc1ccc(Nc2nc3ccccc3c3occc23)cc1,15.6,28.9 µM,0.135,7.07,20 µM,4.02,15.6 µM,,,,,,,,
C/C(=N/Nc1nc(C)cc(=O)[nH]1)C(=O)O,,> 100 µM,,,> 100 µM,,> 100 µM,> 100 µM,> 100 µM,,,,,,
CN1CCN(Cc2cc(NC(=O)c3cccc(C#Cc4cccc5[nH]nc(N)c45)c3)cc(C(F)(F)F)c2)CC1,1.97,3.62 µM,,1.81,3.52 µM,1.48,2.9 µM,,,,,,,,
O=C1NC(c2cccc(OCc3ccccc3)c2)Nc2ccccc21 (stereo unspecified),,,,,,,,> 90.1 µM,,,,,,,
COC1=CC(=O)c2nc(Cl)ccc2C1=O,2.54,6.42 µM,,3.73,16.5 µM,1.79,3.36 µM,,,,,,,,
CN1CCN(Cc2ccc(NC(=O)c3cncc(C#Cc4cnc(N)c5cnccc45)c3)cc2C(F)(F)F)CC1,1.08,7.23 µM,0.41,0.284,8.97 µM,0.115,1.65 µM,9.13 µM,,,,,,,
COCCn1cc(-c2csc(-c3c[nH]c4ccc(Br)cc34)n2)c2cccnc21,4.8,27 µM,1.97,3.68,> 100 µM,4.12,> 100 µM,21 µM,,,,,,,
FC(F)(F)c1cc(Nc2ccc3cc(OCCCN4CCOCC4)ccc3n2)ccc1Cl,1.74,4.07 µM,2.51,1.09,2.68 µM,1.75,3.61 µM,7.51 µM,,,,,,,
COc1ccc(/C=C2\c3cc(OC)c(OC)c(OC)c3CC[C@@H]2O)cc1F,0.443,42.7 µM,0.36,0.474,> 100 µM,0.0399,0.235 µM,> 100 µM,,,,,,,
Cn1c2ccccc2c2c(=O)n(CCCC(=O)OC(=NC3CCCCC3)NC3CCCCC3)c3c(-c4ccccc4)nnn3c21,72,> 100 µM,55.8,> 100,> 100 µM,> 100,> 100 µM,> 100 µM,,,,,,,
CC1(C)N=C(N)N=C(N)N1c1cccc(Br)c1,8.04,> 100 µM,> 82.7,0.212,> 100 µM,0.0612,> 100 µM,> 100 µM,,,,,,,
CCOC1CC2OC(=O)C1C=C2C(=O)OC (stereo unspecified),,,,,,,,,,> 100,54.9,,,,
O=[N+]([O-])c1cc2c([N+](=O)[O-])cccc2o1,,31.9 µM,,,36.1 µM,,53.8 µM,> 100 µM,23.6 µM,,,,,,
CSc1ccc(C(=O)/C=C/c2ccccc2Cl)cc1,15.4,32.9 µM,23.5,16.5,32.4 µM,12.4,30.2 µM,> 100 µM,,,,,,,
C/C(=N/N=C(N)N)c1ccc(NC(=O)Nc2ccc(/C(C)=N/N=C(N)N)cc2)cc1,14.8,38.7 µM,8.29,14.4,46.9 µM,16,> 83.8 µM,34.6 µM,,,,,,,
Cc1nccc2c3ccc(OCc4cn(-c5ccc(Cl)cc5)nn4)cc3n(CC(C)C)c12,1.51,7.12 µM,1.34,1.52,> 33.3 µM,3.38,> 33.3 µM,11.3 µM,,,,,,,
Nc1ncnc2c1ccn2[C@@H]1O[C@H]([C@H](O)c2ccc(Cl)c(F)c2)[C@@H](O)[C@H]1O,> 100,> 100 µM,23.5,> 100,> 100 µM,> 100,> 100 µM,> 100 µM,,,,,,,
C[CH2][Sn]([CH2]C)([O]C(=O)c1ccc(OC)c(OC)c1OC)[O]C(=O)c1ccc(OC)c(OC)c1OC,17.2,31.1 µM,12.7,> 100,> 100 µM,> 100,> 100 µM,26.1 µM,> 100 µM,,> 72.8,> 100,25.7,> 100,> 100
CCCCCCCC(=O)[O][Hg][CH2]C1COC([CH2][Hg][O]C(=O)CCCCCCC)CO1 (stereo unspecified),11.1,23.1 µM,13.1,13.7,26.7 µM,12.9,25.8 µM,46.9 µM,30 µM,,,15.6,,,
COc1cccc(NC(=O)C(=O)C2C=CCS2(=O)=O)c1 (stereo unspecified),,,,,,,,,,,> 100,,,,
COCc1c(-c2ccc(NC(=O)Nc3cc(C(F)(F)F)ccc3F)c(F)c2)c2c(N)ncnn2c1CN1CCOCC1,0.776,6.13 µM,2.14,2.88,> 10 µM,1.93,> 10 µM,9.95 µM,,,,,,,
CCCCCC[C@H](C)NC(=O)c1ccc(Nc2nc3ccccc3c3occc23)cc1,2.79,6.54 µM,1.2,5.36,> 100 µM,2.9,15.3 µM,6.31 µM,,,,,,,
N#CC1C(=O)NC(c2ccccc2[N+](=O)[O-])c2sc3c(F)cccc3c21 (stereo unspecified),14.9,61.5 µM,0.241,12.4,73 µM,23.2,> 83.9 µM,20.7 µM,,,,,,,
CCN(Cc1ccc(F)cc1)c1ccc(CO)c(OC)c1,7.7,32.7 µM,6.32,13.3,33.9 µM,25.7,> 100 µM,33.4 µM,,,,,,,
Cc1ccc(OCC2OC(n3cnc4c(Br)nc(Br)nc43)CC2Oc2ccc(C)cc2)cc1 (stereo unspecified),9.96,20.6 µM and 34.4 µM,2.48,5.42,16.2 µM and 11.8 µM,6.85,19.4 µM and 19.5 µM,29.7 µM and 6.82 µM,17.4 µM and 9.89 µM,,,6.2,,,
CCN(CC)CCn1c2ccccc2c(=O)c2c(OC)ccc(OC)c21,,,,,,,,,,> 100,,,,,> 100
